Like-named read-outs stand apart in the source and are kept apart here.

The subject of one experiment is S. aureus RN450. Put plainly: In Vitro Anti-Bacterial Activity Assay (MIC), gram positive. Format: cell-based. The settings on record: Staphylococcus aureus, RN450, 18 h.
The next experiment concerns E. coli mL308 225. As to the kind of experiment: In Vitro Anti-Bacterial Activity Assay (MIC), gram negative. The experiment is classed as cell-based. Particulars: for MIC: Escherichia coli, ML308225, 18 h.
Setting [1] is: gram positive bacteria, read-out: Antibiotic Activity Gram + (MIC).
[2] abbreviates: gram negative bacteria, read-out: Antibiotic Activity Gram − (MIC).
Setting [3] is: MIC class, Table 3, read-out: Antibiotic Activity Gram +.
The mark [4] stands for this setting: MIC class, Table 3, read-out: Antibiotic Activity Gram −.
[5] abbreviates: MIC class, Table 3 (Continued), read-out: Gram+ activity.

In the case of `CCCC/C(Cl)=C/c1ccc(O)c2c1C[C@H]1C[C@H]3[C@H](N(C)C)C(O)=C(C(N)=O)C(=O)[C@@]3(O)C(O)=C1C2=O`, the MIC in the experiment with S. aureus RN450 (setting [1]) and in the experiment on E. coli mL308 225 (setting [2]) was less than 4 µg/mL each time.

As for `CN(C)[C@@H]1C(O)=C(C(N)=O)C(=O)[C@@]2(O)C(O)=C3C(=O)c4c(O)ccc(NC5CCN(Cc6ccccc6)CC5)c4C[C@H]3C[C@@H]12` [JN], the MIC in the experiment with S. aureus RN450 (setting [3]) and in the experiment with E. coli mL308 225 (setting [4]) was less than 4 µg/mL throughout.

With `CN(C)[C@@H]1C(O)=C(C(N)=O)C(=O)[C@@]2(O)C(O)=C3C(=O)c4c(O)ccc(-c5cccc(C(N)=O)c5)c4C[C@H]3C[C@@H]12` [CN], the MIC in the experiment on S. aureus RN450 (setting [3]) and with E. coli mL308 225 (setting [4]) was less than 4 µg/mL in each case.

Turning to `CN(C)[C@@H]1C(O)=C(C(N)=O)C(=O)[C@@]2(O)C(O)=C3C(=O)c4c(O)ccc(-n5cccn5)c4C[C@H]3C[C@@H]12`, the MIC in the experiment on S. aureus RN450 (setting [1]) and in the experiment with E. coli mL308 225 (setting [2]) was less than 4 µg/mL each time.

Regarding `CCN(CC)Cc1ccc(O)c2c1C[C@H]1C[C@H]3[C@@H](N(C)C)C(O)=C(C(N)=O)C(=O)[C@@]3(O)C(O)=C1C2=O` [KI], the MIC with S. aureus RN450 (setting [3]) and with E. coli mL308 225 (setting [4]) was less than 4 µg/mL each time.

Turning to `COC(=O)CCc1ccc(O)c2c1C[C@H]1C[C@H]3C(N(C)C)C(O)=C(C(N)=O)C(=O)[C@@]3(O)C(O)=C1C2=O` (stereo partly shown) [FC], the MIC with S. aureus RN450 (setting [3]) was less than 4 µg/mL; in the experiment on E. coli mL308 225 (setting [4]) it was greater than 4 µg/mL.

With `CN(C)[C@@H]1C(O)=C(C(N)=O)C(=O)[C@@]2(O)C(O)=C3C(=O)c4c(ccc(NC(=O)Oc5ccc(F)cc5)c4O)C[C@H]3C[C@@H]12`, the MIC in the experiment with S. aureus RN450 (read-out: Gram+ activity) and in the experiment on E. coli mL308 225 (read-out: Gram− activity) was greater than 4 µg/mL throughout.

On to `CCCNCc1ccc(OC)c(-c2ccc(O)c3c2C[C@H]2C[C@H]4C(N(C)C)C(O)=C(C(N)=O)C(=O)[C@@]4(O)C(O)=C2C3=O)c1` (stereo partly shown) [EF], for which the MIC in the experiment on S. aureus RN450 (setting [3]) and with E. coli mL308 225 (setting [4]) was less than 4 µg/mL throughout.

For `CN(C)[C@@H]1C(O)=C(C(N)=O)C(=O)[C@@]2(O)C(O)=C3C(=O)c4c(O)c(CS(C)(=O)=O)cc(-c5ccccn5)c4C[C@H]3C[C@@H]12`, the MIC in the experiment on S. aureus RN450 (setting [1]) was less than 4 µg/mL; in the experiment with E. coli mL308 225 (setting [2]) it was greater than 4 µg/mL.

With `CN(C)[C@@H]1C(O)=C(C(N)=O)C(=O)[C@@]2(O)C(O)=C3C(=O)c4c(O)ccc(-c5ccc(C(C)(C)C)cc5)c4C[C@H]3C[C@@H]12` [drawing 3327], the MIC with S. aureus RN450 (setting [5]) was less than 4 µg/mL. Also, the “Gram− activity” value with E. coli mL308 225 (number printed instead of class symbol, Table 3 (Continued)) is on record as 1.5.

With `CCOc1ccc(-c2ccc(O)c3c2C[C@H]2C[C@H]4C(N(C)C)C(O)=C(C(N)=O)C(=O)[C@@]4(O)C(O)=C2C3=O)cc1CNC(=O)C(F)(F)F` (stereo partly shown) [HS], the figures for the MIC in the experiment with S. aureus RN450 (setting [3]) and in the experiment on E. coli mL308 225 (setting [4]) were less than 4 µg/mL and greater than 4 µg/mL, respectively.

Turning to `CCONC(C)c1ccc(O)c2c1C[C@H]1C[C@H]3[C@H](N(C)C)C(O)=C(C(N)=O)C(=O)[C@@]3(O)C(O)=C1C2=O` (stereo partly shown), the MIC in the experiment with S. aureus RN450 (setting [1]) and with E. coli mL308 225 (setting [2]) was less than 4 µg/mL in each case.

Take `CN(C)c1cc(-c2ccc(Cl)c(Cl)c2)c(O)c2c1C[C@H]1C[C@H]3[C@H](N(C)C)C(O)=C(C(N)=O)C(=O)[C@@]3(O)C(O)=C1C2=O` [AI]: the MIC with S. aureus RN450 (setting [3]) was less than 4 µg/mL; in the experiment with E. coli mL308 225 (setting [4]), greater than 4 µg/mL.

For `CN(C)[C@@H]1C(O)=C(C(N)=O)C(=O)[C@@]2(O)C(O)=C3C(=O)c4c(O)ccc(-c5ccc(Cl)o5)c4C[C@H]3C[C@@H]12`, the MIC was less than 4 µg/mL in the experiment on S. aureus RN450 (setting [5]) and less than 4 µg/mL in the experiment on E. coli mL308 225 (MIC class, Table 3 (Continued), read-out: Gram− activity).

As to `COc1ccc(-c2ccc(O)c3c2C[C@H]2C[C@H]4[C@H](N(C)C)C(O)=C(C(N)=O)C(=O)[C@@]4(O)C(O)=C2C3=O)cc1CN1CCN(C)CC1` [JY], the MIC with S. aureus RN450 (setting [3]) is less than 4 µg/mL; in the experiment on E. coli mL308 225 (setting [4]), greater than 4 µg/mL.

`CN(C)c1cc(NC(=O)Nc2cccc(F)c2)c(O)c2c1C[C@H]1C[C@H]3[C@H](N(C)C)C(O)=C(C(N)=O)C(=O)[C@@]3(O)C(O)=C1C2=O` [DD]: the figures for the MIC in the experiment with S. aureus RN450 (setting [3]) and with E. coli mL308 225 (setting [4]) were less than 4 µg/mL and greater than 4 µg/mL, respectively.

With `CN(C)[C@@H]1C(O)=C(C(N)=O)C(=O)[C@@]2(O)C(O)=C3C(=O)c4c(O)c(CNC(=O)C5CC5)cc(-c5ccc(C(C)(C)C)cc5)c4C[C@H]3C[C@@H]12`, the MIC in the experiment with S. aureus RN450 (setting [1]) and in the experiment on E. coli mL308 225 (setting [2]) was less than 4 µg/mL in each case.

Source of the values: patent US20150141381A1, “TETRACYCLINE COMPOUNDS HAVING TARGET THERAPEUTIC ACTIVITIES” (Paratek Pharmaceuticals, Inc., priority 2001, published 2015).
